Here are results for three compounds from patent US10738049B2, “N-{3-[3-cyclopropyl-5-(2-fluoro-4-iodophenylamino)-6,8-dimethyl-2,4,7-trioxo-3,4,6,7-tetrahydro-2H-pyrido[4,3-D]pyrimidin-1-YL]-phenyl}-cyclopropanecarboxamide dimethyl sulfoxide solvate as an MEK1/2 inhibitor” (R-PHARM JOINT STOCK COMPANY (R-PHARM, JSC), priority 2016, dated 2020).

Values after ≈ are worked out from the molar mass of the structure shown. Like-named read-outs stand apart in the source and are kept apart here.

A short description of data set [1]: Determination of thermodynamic solubility. In kind it is physicochemical. The conditions noted are these: for solubility at 24 h: 25 °C, thermodynamic from solid. The protocol: Use additional quantities of the substances until the solution becomes turbid. Incubate vials with the solution for 24 h at 25° C. with mixing to achieve equilibrium between saturated solution and precipitate. Upon equilibration filter 200 μL of the solution (in duplicate) through a 96-well filter plate (Millipore) to separate the precipitate. Determine concentrations of the compounds in the filtrate by spectrophotometry using standard calibration curve. Carry out measurement of optical absorption spectrum of the substance and plot calibration curve at the selected wavelength (usually corresponding to the substance absorption maximum λmax). Calculate concentration of the substance in the filtrate (i.e., solubility) by the following equation: Solubility=(ODλmax filtrate−ODλmax blank)/Slope×1.67×Filtrate dilution,
ODλmax filtrate=absorbance of the filtrate:
ODλmax blank=absorbance of the blank solution without the substance;
Slope=slope of the calibration curve;
1.67=dilution factor for the filtrate in acetonitrile;
Filtrate dilution=dilution factor for the filtrate in the buffer.

The next data set has as its target T1, MEK1 (Homo sapiens, UniProt Q02750).
T1 construct: purchased Life Technologies
As to the kind of experiment: MEK1 kinase activity, Z'-LYTE screening platform. The format is biochemical. The conditions noted are these: 100 μM ATP, 1% DMSO.

Data set [2] relates to A375 human melanoma xenograft. As to the kind of experiment: Study of efficiency in human melanoma xenograft model. The format is in vivo, NMRI nude female mice. The note with it: for T/C / Vavg (average tumor volume): after 21 days of treatment. The protocol:
Study of efficiency in human melanoma xenograft model. The study was carried out in ProQinase GmbH Freiburg, Breisacher Str. 117, D-79106 Freiburg, GERMANY.
A375 human melanoma cells were cultivated in vials with DMEM medium with addition of 10% FBS in a humid atmosphere containing 95% of air and 5% of CO2 at 37° C. Cancer cells were passaged to animals after an adaptation period. For that end the cells were collected using TrypLE Express (Invitrogen), washed and suspended in sterile PBS to the final concentration of 3×10^7 cells/mL. This cell suspension was injected subcutaneously (SC) in mice left flanks (3×10^6 cells or 100 μL per mouse).
Measurement of subcutaneously implanted tumors was carried out 2 times a week starting from the day of cells introduction. Tumor volume (mm^3) was determined by the equation: V=L×W^2/2,
where L corresponds to maximum and W to minimum tumor diameter (mm). The measurements were carried out using a slide caliper.
The study included calculation of tumor growth inhibition values: T/C=Vexp/Vctrl×100%,
Vctrl=average tumor volume in the control group;
Vexp=average tumor volume in the experimental group.
Vini=initial tumor volume at the start of treatment;
Vfin=tumor volume at the end of treatment.
Background: A xenograft is tissue or cells of one species grown in another, often human tumour cells in immunodeficient mice.

Data set [3] can be described thus: Body weight and deaths during treatment in the xenograft study.
Experimental: The animals were treated with the test products for 21 days.
When average tumor size reached 100-200 mM^3 the animals were subdivided into experimental groups and treatment with the test drugs was started. The products were administered intragastrically daily, while the control group received the solvent.
Also, health and behavior of animals were monitored, numbers of lethal outcomes and tumor regressions were recorded: Regression=(Vini−Vfin)/Vi×100%,
Measurement of animal weights was carried out 3 times a week.
For data set [4] the following is noted: single-dose oral, mice; cited from earlier work.
The conditions of data set [5]: cited from earlier work.
[6] abbreviates: 4% dimethyl sulfoxide and 96% corn oil, oil or lipid, 4% dimethyl sulfoxide, 96% corn oil, read-out: Solubility in a mixture of 4% sulfoxide and 96% corn oil.
Setting [7] is: dimethyl sulfoxide, organic solvent or mixture, read-out: Solubility in dimethyl sulfoxide.
Setting [8] is: water, water, read-out: Solubility in water.
Where [9] appears, read: 0.3 mg/kg intragastrically daily.
Setting [10] is: 1.0 mg/kg intragastrically daily.
Where [11] appears, read: 3.0 mg/kg intragastrically daily.
The mark [12] stands for this setting: 10.0 mg/kg intragastrically daily.

T1 sequence (Q02750 whole entry): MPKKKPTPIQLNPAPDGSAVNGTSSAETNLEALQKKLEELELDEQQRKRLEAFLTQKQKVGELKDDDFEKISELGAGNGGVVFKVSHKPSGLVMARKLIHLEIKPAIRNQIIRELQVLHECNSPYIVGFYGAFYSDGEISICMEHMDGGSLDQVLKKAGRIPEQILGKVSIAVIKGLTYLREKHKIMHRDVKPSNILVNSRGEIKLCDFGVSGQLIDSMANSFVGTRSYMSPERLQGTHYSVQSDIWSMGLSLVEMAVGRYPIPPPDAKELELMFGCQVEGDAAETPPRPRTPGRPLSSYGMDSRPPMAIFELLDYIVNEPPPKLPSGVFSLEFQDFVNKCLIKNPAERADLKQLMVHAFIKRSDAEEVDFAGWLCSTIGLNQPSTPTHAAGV
Experimental for MEK1: Assay. The substances were tested for the effect on MEK1 kinase activity using Z′-LYTE screening platform (Life Technologies). Concentration of DMSO in the reaction mixture was 1%. Dilute 100 nL of 100-fold sinks of the substances under study in 100% DMSO in 2.4 μL of kinase buffer (50 mM of HEPES pH 7.5, 0.01% BRIJ-35, 10 mM of mgCl2, 1 mM of EGTA) and add to 5 μL of 2-fold Substrate/Kinase mixture (MEK1/inactivated MARK1 (ERK2)/Ser/Thr03, final content 0.08-0.31 ng of MEK1, 105 ng of inactivated MARK1 (ERK2), and 2 μM of Ser/Thr03) in 384-well plate (black, small-volume manufactured by Corning, κaT. #3676). Pre-incubate the substances with kinases for 10 min at ambient temperature. After that add 2.5 μL of 4-fold ATP solution to start the reaction (final concentration of ATP in the reaction mixture is 100 μM). After 30 sec of incubation on a shaker incubate the reaction for 60 min at ambient temperature. Then add 5 μL of Reagent B (Life Technologies) diluted as 1:1024 and incubate for 60 min more at ambient temperature. Measure fluorescence with excitation at 400 nm and emission at 445 nm and 520 nM.
Calculate % phosphorylation as follows:
Calculate % inhibition as follows:
C100%=average coumarin emission signal, 100% phosphorylation control;
C0%=average coumarin emission signal, 0% phosphorylation control;
F100%=average fluorescein emission signal, 100% phosphorylation control; […]

For the compound `Cc1c(=O)n(C)c(Nc2ccc(I)cc2F)c2c(=O)n(C3CC3)c(=O)n(-c3cccc(NC(=O)C4CC4)c3)c12` [Compound of formula 1, N-{3-[3-cyclopropyl-5-(2-fluoro-4-iodophenylamino)-6,8-dimethyl-2,4,7-trioxo-3,4,6,7-tetrahydro-2H-pyrido[4,3-d]pyrimidin-1-yl]-phenyl}-cyclopropanecarboxamide dimethyl sulfoxide solvate], the figures for the solubility at 24 h in data set [1] (setting [6]), in data set [1] (setting [7]) and in data set [1] (setting [8]) were 7000 µg/mL, 47000 µg/mL and < 1000 µg/mL, respectively. Further, the “Solubility in dimethyl sulfoxide relative to Trametinib” value in data set [1] (dimethyl sulfoxide, ratio to Trametinib) is recorded as “more than 2 times”. In addition, the IC50 (in general, the concentration that inhibits the measured activity by half) against MEK1 was 8.02 nM. Besides, in data set [2] (0.3 mg/kg intragastric), the “Effect on tumor growth” value is “no effect on tumor growth”. The T/C (in general, the ratio of treated to control) turned out to be 39.5% in data set [2] (setting [9]), 6.7% in data set [2] (setting [10]), 4.0% in data set [2] (setting [11]) and 1.2% in data set [2] (setting [12]). Moreover, the “Vavg (average tumor volume)” value in data set [2] (setting [9]) was 834.3 mm^3; in data set [2] (setting [10]), 140.5 mm^3; in data set [2] (setting [11]) it was 84.5 mm^3; in data set [2] (setting [12]), 26.1 mm^3. Besides, the entries for the “Animals with tumor regression” value in data set [2] (1 mg/kg), in data set [2] (3 mg/kg) and in data set [2] (10 mg/kg) were “three of eight”, 7/8 and 8/8, respectively. Moreover, in data set [3] (10 mg/kg, throughout the study), the “Animal body weight loss as compared to the treatment start date” value is recorded as “not more than 20%”. For the same compound, in data set [3] (any of the doses studied (up to 10 mg/kg)), the Animal deaths result is “did not cause animal deaths”.
Regarding `CC(=O)Nc1cccc(-n2c(=O)n(C3CC3)c(=O)c3c(Nc4ccc(I)cc4F)n(C)c(=O)c(C)c32)c1` [Mekinist, Trametinib dimethyl sulfoxide, reference compound], in data set [2] (3 mg/kg intragastric), the “Animals with tumor regression” value was 100 % animals. Moreover, in data set [2] (setting [11]), the T/C was found to be 1.0% and the “Vavg (average tumor volume)” value turned out to be 21.1 mm^3. For the same compound, the LD50 (commonly the dose at which mortality reaches 50%) in data set [4] is listed as > 2000 mg/kg. Also, the Animal deaths result in data set [3] (3 mg/kg intragastric for 9 days) is “two”.
As for `CC(=O)Nc1cccc(-n2c(=O)n(C3CC3)c(=O)c3c(Nc4ccc(I)cc4F)n(C)c(=O)c(C)c32)c1` [Trametinib, reference compound], the solubility (usually the concentration that dissolves in the medium under given conditions) at 24 h in data set [1] (setting [6]) was 3000 µg/mL (≈ 4.87 mM); in data set [1] (setting [7]), 22000 µg/mL (≈ 35.7 mM); in data set [1] (setting [8]), < 1000 µg/mL. For the same compound, in data set [5] (between pH=2 and pH=8), the “Solubility in aqueous media” value is listed as “practically insoluble”. In addition, the “Solubility in organic solvents” value in data set [5] (organic solvents including highly polar ones) is reported as “very slightly soluble”.
